Measured values as given in patent publication US9302999B2, “Substituted triazoles as herbicides” (E. I. DU PONT DE NEMOURS AND COMPANY, priority 2012, dated 2016).

Key:
Type in all cases: in vivo
[1] = test system: common (oilseed) sunflower (Helianthus annuus); test: Test C pre-/postemergence: sunflower; settings: Preemergence
Outline: (§1)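 Preemergence on seeds in loam/sand, postemergence on 2–18 cm (1–4-leaf) plants in peat-based medium; compounds in non-phytotoxic solvent with surfactant. After 13–15 days in greenhouse, visual rating versus controls, 0 (no effect) to 100 (complete control).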

[2] = test system: bermudagrass (Cynodon dactylon); test: Test C pre-/postemergence: bermudagrass
Outline: as §1

[3] = test system: foxtail, green (green foxtail, Setaria viridis); test: Test C pre-/postemergence: foxtail, green
Outline: as §1

[4] = test system: windgrass (Apera spica-venti); test: Test C postemergence: windgrass
Outline: (§2)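 Visual 0–100 injury score vs untreated controls (0 none, 100 complete control), taken 13–15 d after treatment. Postemergence spray on potted plants, 2–18 cm, 1–4 leaves; greenhouse.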

[5] = test system: nightshade (eastern black nightshade, Solanum ptycanthum); test: Test C pre-/postemergence: nightshade; settings: Preemergence
Outline: as §1

[6] = test system: barley (winter barley, Hordeum vulgare); test: Test C postemergence: barley
Outline: as §2

[7] = test system: cocklebur (common cocklebur, Xanthium strumarium); test: Test C pre-/postemergence: cocklebur
Outline: as §1

[8] = test system: deadnettle (henbit deadnettle, Lamium amplexicaule); test: Test C postemergence: deadnettle
Outline: as §2

[9] = test system: canarygrass (Phalaris minor); test: Test C postemergence: canarygrass
Outline: as §2

[10] = test system: goosegrass (Eleusine indica); test: Test C pre-/postemergence: goosegrass
Outline: as §1

[11] = test system: surinam grass (Brachiaria decumbens); test: Test C pre-/postemergence: surinam grass
Outline: as §1

[12] = 31 g ai/ha, scale of 0 to 100, 0 is no effect, 100 is complete control
[13] = 62 g ai/ha, scale of 0 to 100, 0 is no effect, 100 is complete control
[14] = 125 g ai/ha, scale 0 to 100, 0 no effect, 100 complete control
[15] = 250 g ai/ha, scale 0 to 100, 0 no effect, 100 complete control
[16] = Postemergence, 31 g ai/ha, scale 0 to 100 (0 no effect, 100 complete control)
[17] = Postemergence, 62 g ai/ha, scale 0 to 100 (0 no effect, 100 complete control)
[18] = Postemergence, 125 g ai/ha, scale 0 to 100, 0 no effect, 100 complete control
[19] = Postemergence, 250 g ai/ha, scale 0 to 100
[20] = Preemergence, 31 g ai/ha, scale of 0 to 100, 0 is no effect, 100 is complete control
[21] = Preemergence, 62 g ai/ha, scale 0 to 100, 0 no effect, 100 complete control
[22] = Preemergence, 125 g ai/ha, scale 0 to 100, 0 no effect, 100 complete control
[23] = Preemergence, 250 g ai/ha, scale 0 to 100, 0 no effect, 100 complete control
[24] = Preemergence, 62 g ai/ha, scale of 0 to 100, 0 is no effect, 100 is complete control
[25] = 31 g ai/ha, scale 0 to 100 (0 no effect, 100 complete control)
[26] = 62 g ai/ha, scale 0 to 100 (0 no effect, 100 complete control)

Fc1ccc(-n2nc(Cc3ccnc(C(F)(F)F)c3)c(OC(F)F)n2)cc1 [Compound 25]
40: Plant response rating, Windgrass [4, 14] | Plant response rating, Windgrass ([4]; 250 g ai/ha, scale 0 to 100) | Plant response rating, Goosegrass [10, 19]
98: Plant response rating, Bermudagrass [2, 21] | Plant response rating, Bermudagrass [2, 22]
70: Plant response rating, Foxtail, Green [3, 19]
15: Plant response rating, Bermudagrass [2, 16] | Plant response rating, Cocklebur [7, 16] | Plant response rating, Goosegrass [10, 16] | Plant response rating, Surinam Grass [11, 17] | Plant response rating, Surinam Grass [11, 20]
95: Plant response rating, Foxtail, Green [3, 24] | Plant response rating, Foxtail, Green [3, 22] | Plant response rating, Foxtail, Green [3, 23] | Plant response rating, Nightshade [5, 14] | Plant response rating, Nightshade [5, 15]
5: Plant response rating, Canarygrass [9, 25]
35: Plant response rating, Foxtail, Green [3, 16] | Plant response rating, Foxtail, Green [3, 17] | Plant response rating, Foxtail, Green [3, 18] | Plant response rating, Windgrass [4, 26]
50: Plant response rating, Deadnettle [8, 25]
20: Plant response rating, Bermudagrass [2, 17] | Plant response rating, Barley [6, 25] | Plant response rating, Cocklebur [7, 17] | Plant response rating, Cocklebur [7, 18] | Plant response rating, Cocklebur [7, 19] | Plant response rating, Goosegrass [10, 17] | Plant response rating, Surinam Grass [11, 18] | Plant response rating, Surinam Grass [11, 19] | Plant response rating, Surinam Grass [11, 24]
0: Plant response rating, Sunflower [1, 12] | Plant response rating, Sunflower [1, 13] | Plant response rating, Sunflower [1, 14] | Plant response rating, Sunflower [1, 15] | Plant response rating, Cocklebur [7, 20] | Plant response rating, Cocklebur [7, 21] | Plant response rating, Cocklebur [7, 22]
45: Plant response rating, Nightshade [5, 13]
10: Plant response rating, Nightshade [5, 12] | Plant response rating, Canarygrass [9, 26] | Plant response rating, Surinam Grass [11, 16]
55: Plant response rating, Deadnettle [8, 26] | Plant response rating, Canarygrass ([9]; 250 g ai/ha, scale 0 to 100) | Plant response rating, Surinam Grass [11, 22]
25: Plant response rating, Bermudagrass [2, 18] | Plant response rating, Bermudagrass [2, 19] | Plant response rating, Barley [6, 26] | Plant response rating, Goosegrass [10, 18]
90: Plant response rating, Foxtail, Green [3, 20] | Plant response rating, Deadnettle [8, 14] | Plant response rating, Goosegrass [10, 20]
30: Plant response rating, Windgrass [4, 25] | Plant response rating, Barley [6, 14] | Plant response rating, Barley ([6]; 250 g ai/ha, scale 0 to 100) | Plant response rating, Cocklebur [7, 23] | Plant response rating, Canarygrass [9, 14]
85: Plant response rating, Bermudagrass [2, 20]
100: Plant response rating, Bermudagrass [2, 23] | Plant response rating, Deadnettle ([8]; 250 g ai/ha, scale 0 to 100) | Plant response rating, Goosegrass [10, 24] | Plant response rating, Goosegrass [10, 22] | Plant response rating, Goosegrass [10, 23] | Plant response rating, Surinam Grass [11, 23]
